Laboratory results as given in patent publication US20150344466A1 (SUMITOMO CHEMICAL COMPANY, LIMITED, priority 2013, published 2015).

Legend:
Type in all cases: in vivo
[1] = tested on: Blattella germanica; experiment: Knockdown spray test on Blattella germanica, 2.0% w/v oil formulation (Test Example 1); settings: topical, 0.25 h, active ingredient 2.0% w/v, 1.5 ml sprayed, within 15 minutes, read-out: knockdown rate of the test insects within 15 minutes
Procedure: (§1) Ten Blattella germanica (5 males and 5 females) were released in a test container (8.75 cm in diameter, 7.5 cm in height, and the bottom made of 16 mesh metallic wire) with the inner wall on which butter was applied, and the container was placed on the bottom of a test chamber (bottom: 46 cm×46 cm, height: 70 cm). From a height of 60 cm above the upper surface of the container, 1.5 ml of the test drug solution was sprayed using a spray gun (a spraying pressure of 0.42 kg/cm^2). Thirty seconds after spraying, the container was taken out from the test chamber, and after 2 minutes, 5 minutes and 15 minutes, the number of knocked-down insects was counted to obtain a knockdown rate. The knockdown rate was calculated by the following equation.
(§2) Knockdown Rate (%)=(Number of Knocked-down Insects/Number of Tested Insects)×100

[2] = tested on: Culex pipiens pallens; experiment: Knockdown spray test on adult Culex pipiens pallens (Test Example 4); settings: topical, 0.25 h, active ingredient 0.1% w/v, 0.5 ml sprayed, within 15 minutes, read-out: knockdown rate of the test insects within 15 minutes
In short: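 Knockdown counts were taken 2, 5 and 15 min after spraying and expressed as percent of the 10 adults tested. For the spray, 0.5 ml of solution was applied by spray gun (0.4 kg/cm^2) from 30 cm above a gauze-covered cup in a test chamber; the cup was taken out right after spraying.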

[3] = tested on: Plutella xylostella; experiment: Foliar spray test on Plutella xylostella on cabbage (Test Example 10); settings: 120 h, third instar larvae of Plutella xylostella on cabbage, 500 ppm spray 20 ml/cup, after five days, read-out: controlling value
Procedure: On the other hand, cabbage was planted in a polyethylene cup, and grown until the third-fourth true leaf was spread. The test spray solution was sprayed to the cabbage at a ratio of 20 ml/cup. After the drug solution sprayed on the cabbage was dried, 10 third instar larvae of Plutella xylostella were allowed to parasitize the cabbage. After five days, the number of Plutella xylostella was investigated, and the controlling value was calculated according to the following standard. Controlling value (%)={1−(Cb×Tai)/(Cai×Tb)}×100 In the equation, the symbols represent as follows. Cb: the number of insects in a non-treated section before treatment Cai: the number of insects in a non-treated section on observation Tb: the number of insects in a treated section before treatment Tai: the number of insects in a treated section on observation

[4] = tested on: Blattella germanica; experiment: Knockdown spray test on Blattella germanica, 0.1% w/v oil formulation (Test Example 2); settings: topical, 0.25 h, active ingredient 0.1% w/v, 1.5 ml sprayed, within 15 minutes, read-out: knockdown rate of the test insects within 15 minutes
Procedure: as §1, §2

[5] = tested on: Musca domestica; experiment: Filter paper/sucrose bait death rate test on Musca domestica (Test Example 5); settings: female imagoes of Musca domestica, 0.7 ml on filter paper, after 24 hours
Procedure: A filter paper having a diameter of 5.5 cm was spread on the bottom of a polyethylene cup having the same diameter and 0.7 ml of the test drug solution was added dropwise onto the filter paper, and 30 mg of sucrose was uniformly placed as bait.
Into the polyethylene cup, 10 female imagoes of Musca domestica were released, and the cup was sealed with a lid. After 24 hours, the life and death of Musca domestica was examined, and the death rate was calculated. The death rate was calculated by the following equation.
Death rate (%)=(Number of dead insects/Number of tested insects)×100

| SMILES | pest or weed control at 2 % strength [1] | pest or weed control at 0.1 % strength [2] | pest or weed control at 500 ppm [3] | pest or weed control at 0.1 % strength [4] | pest or weed control at 500 ppm [5] |
| --- | --- | --- | --- | --- | --- |
| CCCc1cc(C(=O)NCC2CCOC2)no1 (centres unmarked) [(10), N-(tetrahydrofuran-3-ylmethyl)-5-propylisoxazole-3-carboxamide] | ≥ 80% |  |  |  |  |
| CCCCCc1cc(C(=O)NCC2CCOC2)no1 (centres unmarked) [(12), N-(tetrahydrofuran-3-ylmethyl)-5-pentylisoxazole-3-carboxamide] | ≥ 80% | ≥ 80% |  |  |  |
| O=C(NCC1CCOC1)c1cc(COC2CCCC2)on1 (centres unmarked) [(19), N-(tetrahydrofuran-3-ylmethyl)-5-cyclopentyloxymethylisoxazole-3-carboxamide] | ≥ 80% |  |  |  |  |
| O=C(NCC1CCOC1)c1cc(COCCc2ccccc2)on1 (centres unmarked) [(25), N-(tetrahydrofuran-3-ylmethyl)-5-(2-phenylethyl)oxymethylisoxazole-3-carboxamide] | ≥ 80% | ≥ 80% |  |  |  |
| CC(OCc1cc(C(=O)NCC2CCOC2)no1)c1ccc2ccccc2c1 (centres unmarked) [(28), N-(tetrahydrofuran-3-ylmethyl)-5-[1-(2-naphthyl)ethyl]oxymethylisoxazole-3-carboxamide] | ≥ 80% | ≥ 80% |  |  |  |
| COCc1c(F)c(F)c(COCc2cc(C(=O)NCC3CCOC3)no2)c(F)c1F (centres unmarked) [(29), N-(tetrahydrofuran-3-ylmethyl)-5-(4-methoxymethyl-2,3,5,6-tetrafluorobenzyl)oxymethylisoxazole-3-carboxamide] | ≥ 80% | ≥ 80% |  |  |  |
| O=C(NCC1CCCO1)c1cc(COCc2ccccc2)on1 (centres unmarked) [(32), N-(tetrahydrofuran-2-ylmethyl)-5-benzyloxymethylisoxazole-3-carboxamide] | ≥ 80% | ≥ 80% |  |  |  |
| O=C(NCC1CCCOC1)c1cc(COCc2ccccc2)on1 (centres unmarked) [(37), N-(tetrahydropyran-3-ylmethyl)-5-benzyloxymethylisoxazole-3-carboxamide] | ≥ 80% | ≥ 80% |  |  |  |
| CCC1(CNC(=O)c2cc(COCc3ccccc3)on2)COCOC1 [(38), N-[5-ethyl-5-(1,3-dioxanylmethyl)]-5-benzyloxymethylisoxazole-3-carboxamide] | ≥ 80% | ≥ 80% |  |  |  |
| Cc1cccc(COCc2cc(C(=O)NCC3CCOCC3)no2)c1 [(83), N-(tetrahydropyran-4-ylmethyl)-5-(3-methylbenzyloxymethyl)isoxazole-3-carboxamide] |  | ≥ 80% | ≥ 90% | ≥ 80% |  |
| O=C(NCC1CCOC1)c1cc(COCc2cccc(Oc3ccccc3)c2)on1 (centres unmarked) [(114), N-(tetrahydrofuran-3-ylmethyl)-5-(3-phenoxybenzyloxymethyl) isoxazole-3-carboxamide] | ≥ 80% | ≥ 80% |  |  |  |
| O=C(NCC1CCOC1)c1cc(COCc2cccc(COCc3ccccc3)c2)on1 (centres unmarked) [(121), N-(tetrahydrofuran-3-ylmethyl)-5-(3-benzyloxymethylbenzyloxymethyl)isoxazole-3-carboxamide] |  | ≥ 80% |  | ≥ 80% | ≥ 90% |
| O=C(NCC1CCOC1)c1cc(COCCOc2ccccc2)on1 (centres unmarked) [(149), N-(tetrahydrofuran-3-ylmethyl)-5-(2-phenoxyethoxymethyl)isoxazole-3-carboxamide] | ≥ 80% | ≥ 80% |  | ≥ 80% |  |
| O=C(NCC1CCOCC1)c1cc(COc2cccc(F)c2)on1 [(195), N-(tetrahydropyran-4-ylmethyl)-5-(3-fluorophenoxymethyl)isoxazole-3-carboxamide] |  | ≥ 80% |  | ≥ 80% | ≥ 90% |
| O=C(NCC1CCOC1)c1cc(COCc2cc(F)cc(F)c2)on1 (centres unmarked) [(266), 14-(tetrahydrofuran-3-ylmethyl)-5-(3,5-difluorobenzyloxymethyl)isoxazole-3-carboxamide] |  | ≥ 80% |  | ≥ 80% | ≥ 90% |
| O=C(NCC1CCOC1)c1cc(COCc2cc(F)c(F)c(F)c2)on1 (centres unmarked) [(267), N-(tetrahydrofuran-3-ylmethyl)-5-(3,4,5-trifluorobenzyloxymethyl)isoxazole-3-carboxamide] |  | ≥ 80% |  | ≥ 80% | ≥ 90% |
| O=C(NCC1CCOC1)c1cc(COCc2cc(F)cc(Cl)c2)on1 (centres unmarked) [(268), N-(tetrahydrofuran-3-ylmethyl)-5-(3-chloro-5-fluorobenzyloxymethyl)isoxazole-3-carboxamide] |  | ≥ 80% |  | ≥ 80% | ≥ 90% |
| O=C(NCC1CCOC1)c1cc(COCc2ccc(F)c(F)c2F)on1 (centres unmarked) [(270), N-(tetrahydrofuran-3-ylmethyl)-5-(2,3,4-trifluorobenzyloxymethyl)isoxazole-3-carboxamide] |  | ≥ 80% |  | ≥ 80% | ≥ 90% |
| O=C(NCC1CCOC1)c1cc(COCc2cccc(F)c2F)on1 (centres unmarked) [(274), N-(tetrahydrofuran-3-ylmethyl)-5-(2,3-difluorobenzyloxymethyl)isoxazole-3-carboxamide] |  | ≥ 80% |  | ≥ 80% | ≥ 90% |
| O=C(NCC1CCOC1)c1cc(COCc2ccc(F)cc2F)on1 (centres unmarked) [(278), N-(tetrahydrofuran-3-ylmethyl)-5-(2,4-difluorobenzyloxymethyl)isoxazole-3-carboxamide] |  | ≥ 80% |  | ≥ 80% | ≥ 90% |
| Cc1c(C(=O)NCC2CCOC2)noc1COCc1ccccc1F (centres unmarked) [(286), N-(tetrahydrofuran-3-ylmethyl)-5-(2-fluorobenzyloxymethyl)-4-methylisoxazole-3-carboxamide] |  | ≥ 80% |  | ≥ 80% | ≥ 90% |
| O=C(NCC1CCOC1)c1cc(Cc2cc(F)cc(F)c2)on1 (centres unmarked) [(305), N-(tetrahydrofuran-3-ylmethyl)-5-(3,5-difluorobenzyl)isoxazole-3-carboxamide] |  | ≥ 80% |  | ≥ 80% | ≥ 90% |
| O=C(NCC1CCOC1)c1cc(Cc2ccsc2)on1 (centres unmarked) [(309), N-(tetrahydrofuran-3-ylmethyl)-5-(3-thienylmethyl)isoxazole-3-carboxamide] |  | ≥ 80% |  | ≥ 80% | ≥ 90% |
| COc1ccc(Cc2cc(C(=O)NCC3CCOC3)no2)cc1 (centres unmarked) [(314), N-(tetrahydrofuran-3-ylmethyl)-5-(4-methoxybenzyl)isoxazole-3-carboxamide] |  | ≥ 80% |  | ≥ 80% | ≥ 90% |
| O=C(NCC1CCOC1)c1cc(Cc2ccc(F)cc2)on1 (centres unmarked) [(319), N-(tetrahydrofuran-3-ylmethyl)-5-(4-fluorobenzyl)isoxazole-3-carboxamide] |  | ≥ 80% |  | ≥ 80% | ≥ 90% |
| O=C(NCC1CCOC1)c1cc(Cc2ccc(Cl)cc2)on1 (centres unmarked) [(322), N-(tetrahydrofuran-3-ylmethyl)-5-(4-chlorobenzyl)isoxazole-3-carboxamide] |  | ≥ 80% |  | ≥ 80% | ≥ 90% |
| O=C(NCC1CCOC1)c1cc(Cc2ccc(F)c(F)c2F)on1 (centres unmarked) [(324), N-(tetrahydrofuran-3-ylmethyl)-5-(2,3,4-trifluorobenzyl)isoxazole-3-carboxamide] |  | ≥ 80% |  | ≥ 80% | ≥ 90% |
| O=C(NCC1COC1)c1cc(COCc2ccccc2)on1 [(337), N-(oxetan-3-ylmethyl)-5-benrzyloxymethylisoxazole-3-carboxamide] | ≥ 80% | ≥ 80% |  |  |  |
